In ChEMBL document CHEMBL1136638, “N-Benzoyl amino acids as LFA-1/ICAM inhibitors 1: amino acid structure-activity relationship” (Bioorg Med Chem Lett, 2003):

Biological target: Intercellular adhesion molecule (ICAM-1), Integrin alpha-L/beta-2 (Homo sapiens, UniProt P05107+P05362+P20701)
Test: Concentration required to inhibit binding of ICAM-1 to LFA-1 (Leukocyte function-associated antigen-1), evaluated ELISA
Format: protein-complex assay

Chain of Intercellular adhesion molecule (ICAM-1), Integrin alpha-L/beta-2 (P20701 whole entry): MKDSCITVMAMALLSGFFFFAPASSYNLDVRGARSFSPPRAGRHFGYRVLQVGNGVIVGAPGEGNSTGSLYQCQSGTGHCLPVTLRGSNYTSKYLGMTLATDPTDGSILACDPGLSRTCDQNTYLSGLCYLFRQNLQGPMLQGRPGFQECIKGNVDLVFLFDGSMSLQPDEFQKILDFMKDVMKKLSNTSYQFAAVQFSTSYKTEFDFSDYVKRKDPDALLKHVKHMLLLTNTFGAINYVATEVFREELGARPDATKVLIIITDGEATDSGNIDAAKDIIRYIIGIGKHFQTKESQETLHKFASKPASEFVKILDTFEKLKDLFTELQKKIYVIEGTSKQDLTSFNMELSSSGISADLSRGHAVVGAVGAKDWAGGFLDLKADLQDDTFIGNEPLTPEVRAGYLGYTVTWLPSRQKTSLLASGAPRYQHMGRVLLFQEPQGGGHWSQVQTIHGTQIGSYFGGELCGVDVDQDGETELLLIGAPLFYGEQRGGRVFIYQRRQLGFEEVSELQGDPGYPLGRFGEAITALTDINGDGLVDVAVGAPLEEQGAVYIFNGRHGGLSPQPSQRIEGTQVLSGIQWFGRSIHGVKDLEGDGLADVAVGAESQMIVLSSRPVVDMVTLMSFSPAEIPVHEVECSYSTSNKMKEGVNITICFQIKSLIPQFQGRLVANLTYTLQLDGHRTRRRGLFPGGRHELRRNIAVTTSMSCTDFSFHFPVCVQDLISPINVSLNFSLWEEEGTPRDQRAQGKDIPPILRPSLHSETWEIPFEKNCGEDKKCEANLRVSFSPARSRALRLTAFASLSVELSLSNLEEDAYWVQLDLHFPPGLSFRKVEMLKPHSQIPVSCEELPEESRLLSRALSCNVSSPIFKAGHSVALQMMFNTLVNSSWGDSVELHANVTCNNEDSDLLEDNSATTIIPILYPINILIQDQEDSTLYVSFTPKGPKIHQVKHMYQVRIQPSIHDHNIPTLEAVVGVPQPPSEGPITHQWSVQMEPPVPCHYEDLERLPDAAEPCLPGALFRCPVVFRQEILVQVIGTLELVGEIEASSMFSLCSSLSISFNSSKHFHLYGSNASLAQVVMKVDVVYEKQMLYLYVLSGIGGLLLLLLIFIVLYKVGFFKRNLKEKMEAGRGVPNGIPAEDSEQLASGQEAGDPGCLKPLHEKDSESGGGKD
Chain of Intercellular adhesion molecule (ICAM-1), Integrin alpha-L/beta-2 (P05362 whole entry): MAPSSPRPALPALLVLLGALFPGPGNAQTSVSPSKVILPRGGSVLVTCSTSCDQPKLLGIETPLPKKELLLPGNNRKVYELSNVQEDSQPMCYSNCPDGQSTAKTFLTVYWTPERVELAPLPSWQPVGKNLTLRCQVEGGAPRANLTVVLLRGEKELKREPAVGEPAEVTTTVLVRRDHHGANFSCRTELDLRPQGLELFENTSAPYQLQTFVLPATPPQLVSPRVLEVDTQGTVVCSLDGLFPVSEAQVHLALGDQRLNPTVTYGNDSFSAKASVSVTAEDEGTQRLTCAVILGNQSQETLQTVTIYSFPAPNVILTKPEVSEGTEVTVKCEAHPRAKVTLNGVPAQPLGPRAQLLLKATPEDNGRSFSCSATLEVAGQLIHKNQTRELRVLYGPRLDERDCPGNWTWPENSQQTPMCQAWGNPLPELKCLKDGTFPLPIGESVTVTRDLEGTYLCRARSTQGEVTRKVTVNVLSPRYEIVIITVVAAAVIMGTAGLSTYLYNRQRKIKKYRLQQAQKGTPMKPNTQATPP
Chain of Intercellular adhesion molecule (ICAM-1), Integrin alpha-L/beta-2 (P05107 whole entry): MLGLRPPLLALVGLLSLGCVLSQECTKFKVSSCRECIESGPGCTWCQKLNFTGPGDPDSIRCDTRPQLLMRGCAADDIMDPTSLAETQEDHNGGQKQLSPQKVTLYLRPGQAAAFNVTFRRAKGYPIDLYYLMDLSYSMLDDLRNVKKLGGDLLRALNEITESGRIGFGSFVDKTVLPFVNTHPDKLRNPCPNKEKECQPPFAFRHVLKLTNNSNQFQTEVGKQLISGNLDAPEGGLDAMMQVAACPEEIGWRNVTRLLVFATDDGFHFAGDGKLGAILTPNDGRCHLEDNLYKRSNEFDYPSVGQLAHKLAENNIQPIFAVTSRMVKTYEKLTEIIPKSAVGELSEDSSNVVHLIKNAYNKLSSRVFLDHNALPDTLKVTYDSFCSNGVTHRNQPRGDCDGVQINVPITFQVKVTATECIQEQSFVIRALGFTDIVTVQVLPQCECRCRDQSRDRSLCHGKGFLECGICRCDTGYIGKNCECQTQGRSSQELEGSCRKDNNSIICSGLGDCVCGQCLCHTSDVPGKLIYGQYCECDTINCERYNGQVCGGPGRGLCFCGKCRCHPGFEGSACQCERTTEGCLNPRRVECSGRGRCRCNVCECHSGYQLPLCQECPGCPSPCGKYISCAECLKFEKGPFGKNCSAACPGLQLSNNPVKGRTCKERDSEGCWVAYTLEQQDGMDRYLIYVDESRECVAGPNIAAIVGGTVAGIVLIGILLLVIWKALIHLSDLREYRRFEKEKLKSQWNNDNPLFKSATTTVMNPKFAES

| SMILES | IC50 [µM] |
| --- | --- |
| N=C(N)NCCC[C@H](NC(=O)c1ccccc1Br)C(=O)O | 2.71 |
| O=C(N[C@@H](Cc1c[nH]c2ccccc12)C(=O)O)c1ccccc1Br | 1.7 |
| O=C(N[C@@H](Cc1c[nH]c2ccc(Br)cc12)C(=O)O)c1ccccc1Br | 28.4 |
| O=C(N[C@H](Cc1ccc2ccccc2c1)C(=O)O)c1ccccc1Br | 243 |
| NC(=O)CC[C@H](NC(=O)c1ccccc1Br)C(=O)O | 1.77 |
| O=C(N[C@@H](CS)C(=O)O)c1ccccc1Br | 4.26 |
| COC(=O)[C@H](Cc1c[nH]c2ccccc12)NC(=O)c1ccccc1Br | > 1000 |
| O=C(N[C@@H](Cc1c[nH]c2ccccc12)C(=O)NO)c1ccccc1Br | 140 |
| O=C(N[C@@H](CCc1ccccc1)C(=O)O)c1ccccc1Br | 5.09 |
| N#Cc1ccc(C[C@H](NC(=O)c2ccccc2Br)C(=O)O)cc1 | 36.8 |
| O=C(NCCc1c[nH]c2ccccc12)c1ccccc1Br | > 1000 |
| C[C@@H](NC(=O)c1ccccc1Br)C(=O)O | 57.5 |
| O=C(N[C@@H](Cc1ccccc1)C(=O)O)c1ccccc1Br | 4.89 |
| CC(C)C[C@H](NC(=O)c1ccccc1Br)C(=O)O | 54.3 |
| O=C(N[C@@H](Cc1cnc[nH]1)C(=O)O)c1ccccc1Br | 0.75 |
| O=C(O)C[C@H](NC(=O)c1ccccc1Br)C(=O)O | > 200 |
| O=C(O)[C@@H]1CCCN1C(=O)c1ccccc1Br | > 1000 |
| COc1ccc2[nH]cc(C[C@H](NC(=O)c3ccccc3Br)C(=O)O)c2c1 | 2.77 |
| CSCC[C@H](NC(=O)c1ccccc1Br)C(=O)O | 7.46 |
| O=C(N[C@@H](Cc1c[nH]c2ccc(O)cc12)C(=O)O)c1ccccc1Br | 24.2 |
| NCCCC[C@H](NC(=O)c1ccccc1Br)C(=O)O | 1.21 |

| SMILES | IC50 [µM] |
| --- | --- |
| O=C(N[C@H](CO)C(=O)O)c1ccccc1Br | 72.6 |
| O=C(N[C@H](Cc1ccccc1)C(=O)O)c1ccccc1Br | 280 |
| O=C(O)CC[C@H](NC(=O)c1ccccc1Br)C(=O)O | 30.1 |
| CC(C)[C@H](NC(=O)c1ccccc1Br)C(=O)O | 11.3 |
| O=C(N[C@@H](Cc1ccc(-c2ccccc2)cc1)C(=O)O)c1ccccc1Br | 50.5 |
| O=C(O)CNC(=O)c1ccccc1Br | 314 |
| O=C(N[C@@H](Cc1ccc(O)cc1)C(=O)O)c1ccccc1Br | 1.09 |
| O=C(N[C@@H](Cc1ccc2ccccc2c1)C(=O)O)c1ccccc1Br | 24.4 |
| O=C(N[C@@H](Cc1cccs1)C(=O)O)c1ccccc1Br | 5.5 |
| C[C@@H](O)[C@H](NC(=O)c1ccccc1Br)C(=O)O | 3.84 |
| O=C(N[C@H](Cc1cccc2ccccc12)C(=O)O)c1ccccc1Br | > 200 |
| CC[C@H](C)[C@H](NC(=O)c1ccccc1Br)C(=O)O | 106 |
| O=C(N[C@@H](CO)C(=O)O)c1ccccc1Br | 6.15 |
| NC(=O)[C@H](Cc1c[nH]c2ccccc12)NC(=O)c1ccccc1Br | > 1000 |
| O=C(N[C@@H](Cc1c[nH]c2ncccc12)C(=O)O)c1ccccc1Br | 63.8 |
| NC(=O)C[C@H](NC(=O)c1ccccc1Br)C(=O)O | 1.08 |
| O=C(N[C@@H](Cc1c[nH]c2cc(F)ccc12)C(=O)O)c1ccccc1Br | 7.64 |
| C[C@H](NC(=O)c1ccccc1Br)C(=O)O | 6.64 |
| O=C(N[C@H](Cc1c[nH]c2ccccc12)C(=O)O)c1ccccc1Br | 76.6 |
| O=C(N[C@@H](Cc1c[nH]c2ccc(F)cc12)C(=O)O)c1ccccc1Br | 10.8 |
| O=C(N[C@@H](Cc1cccc2ccccc12)C(=O)O)c1ccccc1Br | 15.9 |
